Measurements as given in patent US9801961B2, “2-phenylimidazo[1,2-a]pyrimidines as imaging agents” (Hoffmann-La Roche Inc., priority 2013, dated 2017).

Tested on: native tau aggregates
Assay: TAU radioligand in vitro displacement assay ([3H]T808 autoradiography on human AD brain sections)
Type: binding
Conditions: radioligand [3H]T808 10 nM, 50 mM Tris pH 7.4, room temperature, 30 min; for % displacement of [3H]T808 (10 nM) at 10 nM: compound 10 nM; for % displacement of [3H]T808 (10 nM) at 1 uM: compound 1 uM
Description: TAU Radioligand-In-Vitro Displacement Assay
This in vitro binding assay assesses the affinity of compounds for native tau aggregates. The compounds are co-incubated with the well-established tau specific radioligand [^3H]T808 and the compound's displacement potency of [^3H]T808 binding is determined by in vitro autoradiography using human Alzheimer's disease (AD) brain sections (FIG. 1).
AD human brains are purchased from Banner Sun Health Research Institute (Sun City, Ariz., USA). Pathological diagnosis of AD is made according to standard NIA-Reagan Institute criteria based on neuropathological data. The radioligand [^3H]T808 was synthesized in-house ([^3H]-2-[4-(2-Fluoro-ethyl)-piperidin-1-yl]-benzo[4,5]imidazo[1,2-a]pyrimidine, radiochemical purity 99.0%). As a reference cold T808 is used (2-[4-(2-Fluoro-ethyl)-piperidin-1-yl]-benzo[4,5]imidazo[1,2-a]pyrimidine). For the autoradiography FujiFilm Imaging Plates (BAS-IP TR 2025) are exposed to the sections and read with a FujiFilm IP reader (BAS-5000).
Ten μm thick human AD brain sections are generated with a cryostat (Leica CM3050) at −17° C. chamber temperature and −15° C. object temperature. Sections are transferred to Histobond+microscope slides (Marienfeld Laboratory Glasware). After drying for 3 hours at room temperature the sections are stored at −20° C. The sections are incubated with the radioligand (10 nM) and the respective cold compound (at various concentrations) in 50 mM Tris buffer, pH 7.4 at room temperature for 30 min. After washing 3×10 min at 4° C. in 50 mM Tris buffer, pH 7.4 and 3 quick dips in H2O dist. at 4° C. the sections are dried at 4° C. for 3 h. The sections are placed in a FujiFilm Cassette (BAS 2025), exposed with an Imaging Plate for five days and afterwards scanned with a resolution of […].
The signal intensity (Dens—PSL/mm2) in the region of interest (ROI) of the autoradiogram is quantified with the software MCID analysis (version 7.0, Imaging Research Inc.). The specific binding (SB) of [^3H]T808 binding in absence or in presence of a compound is calculated by subtracting the non-specific binding signal in the white matter, thus yielding SB[3H]T808 only and SBcompund. The % displacement by the various compounds is calculated as following: % displacement=100−(SBcompund/SB[3H]T808 only)*100.
In each experiment cold T808 is used as a positive internal control. Co-incubation of equimolar amounts of hot and cold T808 is expected to reduce specific binding by approximately 50%.

Row | Compound | % displacement of [3H]T808 (10 nM) at 10 nM [%] | % displacement of [3H]T808 (10 nM) at 1 uM [%]
1 | CNc1ccn2cc(-c3ccccc3)nc2n1 [Example 1, N-Methyl-2-phenylimidazo[1,2-a]pyrimidin-7-amine] | 37 | –
2 | FC1CCN(c2ccn3cc(-c4ccc5c(c4)OCCO5)nc3n2)CC1 [Example 8, 2-(2,3-Dihydro-1,4-benzodioxin-6-yl)-7-(4-fluoropiperidin-1-yl)imidazo[1,2-a]pyrimidine] | – | 72
3 | Fc1ccccc1-c1cn2ccc(N3CCC(F)CC3)nc2n1 [Example 12, 2-(2-Fluorophenyl)-7-(4-fluoropiperidin-1-yl)imidazo[1,2-a]pyrimidine] | – | 50
4 | FC1CCN(c2ccn3cc(-c4cccc(OC(F)(F)F)c4)nc3n2)CC1 [Example 15, 7-(4-Fluoropiperidin-1-yl)-2-[3-(trifluoromethoxy)phenyl]imidazo[1,2-a]pyrimidine] | 14 | –
5 | FCOc1cccc(-c2cn3ccc(N4CCCC4)nc3n2)c1 [Example 16, 2-[3-(Fluoromethoxy)phenyl]-7-pyrrolidin-1-ylimidazo[1,2-a]pyrimidine] | 27 | 88
6 | FCCOc1cccc(-c2cn3ccc(N4CCCC4)nc3n2)c1 [Example 17, 2-[3-(2-Fluoroethoxy)phenyl]-7-pyrrolidin-1-ylimidazo[1,2-a]pyrimidine] | – | 76
7 | CN(C)c1ccn2cc(-c3ccccc3)nc2n1 [Example 18, N,N-Dimethyl-2-phenylimidazo[1,2-a]pyrimidin-7-amine] | 35 | 92
8 | COc1ccc(-c2cn3ccc(N4CCN(CCF)CC4)nc3n2)cc1.Cl [Example 19, 7-[4-(2-Fluoroethyl)piperazin-1-yl]-2-(4-methoxyphenyl)imidazo[1,2-a]pyrimidine hydrochloride] | – | 74
9 | COc1cccc(-c2cn3ccc(N4CCN(CCF)CC4)nc3n2)c1.Cl [Example 20, 7-[4-(2-Fluoroethyl)piperazin-1-yl]-2-(3-methoxyphenyl)imidazo[1,2-a]pyrimidine hydrochloride] | – | 51
10 | CN(CCF)c1ccn2cc(-c3ccccc3)nc2n1 [Example 21, N-(2-Fluoroethyl)-N-methyl-2-phenylimidazo[1,2-a]pyrimidin-7-amine] | – | 84
11 | COc1cccc(-c2cn3ccc(N(C)CCF)nc3n2)c1 [Example 22, N-(2-Fluoroethyl)-2-(3-methoxyphenyl)-N-methylimidazo[1,2-a]pyrimidin-7-amine] | – | 82
12 | COc1ccc(-c2cn3ccc(N(C)CCF)nc3n2)cc1 [Example 23, N-(2-Fluoroethyl)-2-(4-methoxyphenyl)-N-methylimidazo[1,2-a]pyrimidin-7-amine] | 33 | 92
13 | Cl.FCCN1CCN(c2ccn3cc(-c4ccccc4)nc3n2)CC1 [Example 24, 7-[4-(2-Fluoroethyl)piperazin-1-yl]-2-phenylimidazo[1,2-a]pyrimidine hydrochloride] | – | 64
14 | COc1ccc(-c2cn3ccc(N4CCOCC4)nc3n2)cc1 [Example 25, 4-[2-(4-Methoxyphenyl)imidazo[1,2-a]pyrimidin-7-yl]morpholine] | 16 | –
15 | Cc1cccc(-c2cn3ccc(N4CCOCC4)nc3n2)c1 [Example 26, 4-[2-(3-Methylphenyl)imidazo[1,2-a]pyrimidin-7-yl]morpholine] | 13 | –
16 | COc1ccc(-c2cn3ccc(N4CCOCC4)nc3n2)cc1OC [Example 27, 4-[2-(3,4-Dimethoxyphenyl)imidazo[1,2-a]pyrimidin-7-yl]morpholine] | 17 | –
17 | CO[C@@H]1CCN(c2ccn3cc(-c4ccccc4)nc3n2)C1 [Example 31, 7-[(3R)-3-Methoxypyrrolidin-1-yl]-2-phenylimidazo[1,2-a]pyrimidine] | 7 | –
18 | CO[C@H]1CCN(c2ccn3cc(-c4ccccc4)nc3n2)C1 [Example 32, 7-[(3S)-3-Methoxypyrrolidin-1-yl]-2-phenylimidazo[1,2-a]pyrimidine] | 13 | –
19 | COc1ccc(-c2cn3ccc(N4CC[C@@H](F)C4)nc3n2)cc1 [Example 33, 7-[(3R)-3-Fluoropyrrolidin-1-yl]-2-(4-methoxyphenyl)imidazo[1,2-a]pyrimidine] | 25 | –
20 | COc1ccc(-c2cn3ccc(N4CC[C@H](F)C4)nc3n2)cc1 [Example 34, 7-[(3 S)-3-Fluoropyrrolidin-1-yl]-2-(4-methoxyphenyl)imidazo[1,2-a]pyrimidine] | 15 | –
21 | COc1cccc(-c2cn3ccc(N(C)C)nc3n2)c1 [Example 35, 2-(3-Methoxyphenyl)-N,N-dimethylimidazo[1,2-a]pyrimidin-7-amine] | 34 | –

Next, values leading:

Row | % displacement of [3H]T808 (10 nM) at 10 nM [%] | % displacement of [3H]T808 (10 nM) at 1 uM [%] | Compound
22 | 19 | 72 | FC1CCN(c2ccn3cc(-c4ccccc4)nc3n2)CC1 [Example 2, 7-(4-Fluoropiperidin-1-yl)-2-phenylimidazo[1,2-a]pyrimidine]
23 | 31 | 87 | COc1ccc(-c2cn3ccc(N4CCC(F)CC4)nc3n2)cc1 [Example 3, 7-(4-Fluoropiperidin-1-yl)-2-(4-methoxyphenyl)imidazo[1,2-a]pyrimidine]
24 | – | 58 | FC1CCN(c2ccn3cc(-c4ccc(Cl)cc4)nc3n2)CC1 [Example 4, 2-(4-Chlorophenyl)-7-(4-fluoropiperidin-1-yl)imidazo[1,2-a]pyrimidine]
25 | 33 | 74 | COc1cccc(-c2cn3ccc(N4CCC(F)CC4)nc3n2)c1 [Example 5, 7-(4-Fluoropiperidin-1-yl)-2-(3-methoxyphenyl)imidazo[1,2-a]pyrimidine]
26 | – | 65 | Fc1ccc(-c2cn3ccc(N4CCC(F)CC4)nc3n2)cc1 [Example 6, 2-(4-Fluorophenyl)-7-(4-fluoropiperidin-1-yl)imidazo[1,2-a]pyrimidine]
27 | 21 | 75 | FC1CCN(c2ccn3cc(-c4ccc5c(c4)OCO5)nc3n2)CC1 [Example 7, 2-(1,3-Benzodioxol-5-yl)-7-(4-fluoropiperidin-1-yl)imidazo[1,2-a]pyrimidine]
28 | – | 75 | FC1CCN(c2ccn3cc(-c4ccc(N5CCOCC5)cc4)nc3n2)CC1 [Example 9, 4-[4-[7-(4-Fluoropiperidin-1-yl)imidazo[1,2-a]pyrimidin-2-yl]phenyl]morpholine]
29 | – | 79 | Cc1cccc(-c2cn3ccc(N4CCC(F)CC4)nc3n2)c1 [Example 10, 7-(4-Fluoropiperidin-1-yl)-2-(3-methylphenyl)imidazo[1,2-a]pyrimidine]
30 | 4 | 81 | Cc1ccc(-c2cn3ccc(N4CCC(F)CC4)nc3n2)cc1 [Example 11, 7-(4-Fluoropiperidin-1-yl)-2-(4-methylphenyl)imidazo[1,2-a]pyrimidine]
31 | – | 67 | Oc1cccc(-c2cn3ccc(N4CCC(F)CC4)nc3n2)c1 [Example 13, 3-[7-(4-Fluoropiperidin-1-yl)imidazo[1,2-a]pyrimidin-2-yl]phenol]
32 | 18 | 75 | FC1CCN(c2ccn3cc(-c4ccc(N5CCCC5)cc4)nc3n2)CC1 [Example 14, 7-(4-Fluoropiperidin-1-yl)-2-(4-pyrrolidin-1-ylphenyl)imidazo[1,2-a]pyrimidine]
33 | 22 | – | Oc1ccc(-c2cn3ccc(N4CCCC4)nc3n2)cc1 [Example 28, 4-(7-Pyrrolidin-1-ylimidazo[1,2-a]pyrimidin-2-yl)phenol]
34 | 15 | – | FCCOc1ccc(-c2cn3ccc(N4CCCC4)nc3n2)cc1 [Example 29, 2-[4-(2-Fluoroethoxy)phenyl]-7-pyrrolidin-1-ylimidazo[1,2-a]pyrimidine]
35 | 9 | – | FCOc1ccc(-c2cn3ccc(N4CCCC4)nc3n2)cc1 [Example 30, 2-[4-(Fluoromethoxy)phenyl]-7-pyrrolidin-1-ylimidazo[1,2-a]pyrimidine]
